Broadly, the pA2 is a measure of antagonist potency on a negative log scale. A lower pA2 goes with a weaker antagonist.

Our source for the pA2 and Blood pressure values is ChEMBL document CHEMBL1127194, “1,3- And 1,5-bisbiphenylyl substituted 3-metcaptotriazoles as angiotensin II receptor antagonists” (Bioorg Med Chem Lett, 1993).

The first assay concerns the target Oryctolagus cuniculus angiotensin II receptor. Nature of the assay: Inhibition of angiotensin II induced contractions in rabbit aortic ring preparation.
`O=C(O)c1ccccc1-c1ccc(CSc2nc(Cc3ccccc3)n(Cc3ccc(-c4ccccc4C(=O)O)cc3)n2)cc1`: the pA2 is listed as 7.

Molecule `CCCCCCCCc1nc(S(=O)(=O)Cc2ccc(-c3ccccc3C(=O)O)cc2)nn1Cc1ccc(-c2ccccc2C(=O)O)cc1` registered a pA2 of 6.1.

As for `CCCCCCCc1nc(S(=O)(=O)Cc2ccc(-c3ccccc3C(=O)O)cc2)nn1Cc1ccc(-c2ccccc2C(=O)O)cc1`, the pA2 is 6.5.

`CCCCCCCc1nc(SCc2ccc(-c3ccccc3C(=O)O)cc2)nn1Cc1ccc(-c2ccccc2C(=O)O)cc1` displayed a pA2 of 6.7.

Molecule `CCCCCc1nc(SCc2ccc(-c3ccccc3C(=O)O)cc2)nn1Cc1ccc(-c2ccccc2C#N)cc1` gave a pA2 of under 5.

`CCCCc1nc(SCc2ccc(-c3ccccc3C(=O)O)cc2)n(Cc2ccc(-c3ccccc3C(=O)O)cc2)n1` returned a pA2 of 7.

`CCCCCCc1nc(S(=O)(=O)Cc2ccc(-c3ccccc3C(=O)O)cc2)nn1Cc1ccc(-c2ccccc2C(=O)O)cc1` yielded a pA2 of 8.1.

`CC(C)Cc1nc(SCc2ccc(-c3ccccc3C(=O)O)cc2)nn1Cc1ccc(-c2ccccc2C(=O)O)cc1` displayed a pA2 of 7.5.

In turn, `CCCCc1nc(SCc2ccc(-c3ccccc3C(=O)OC)cc2)nn1Cc1ccc(-c2ccccc2C(=O)OC)cc1` registered a pA2 of under 5.

The molecule `CCCCc1nc(SCc2ccc(-c3ccccc3C(=O)O)cc2)nn1Cc1ccc(-c2ccccc2C(=O)O)cc1` came in with a pA2 of 8.3.

For the molecule `CCCCCc1nc(SCc2ccc(-c3ccccc3C(=O)OC)cc2)nn1Cc1ccc(-c2ccccc2C(=O)OC)cc1`, the pA2 is listed as under 5.

On to `O=C(O)c1ccccc1-c1ccc(CSc2nc(Cc3ccccc3)nn2Cc2ccc(-c3ccccc3C(=O)O)cc2)cc1`, for which the pA2 stood at 6.1.

`CCCCCCCc1nc(SCc2ccc(-c3ccccc3C(=O)O)cc2)n(Cc2ccc(-c3ccccc3C(=O)O)cc2)n1` showed a pA2 of 5.9.

In turn, `CCCCCc1nc(SCc2ccc(-c3ccccc3C(=O)O)cc2)nn1Cc1ccc(-c2ccccc2C(=O)O)cc1` came in with a pA2 of 8.4.

As for `CCCCCc1nc(SCc2ccc(-c3ccccc3C#N)cc2)nn1Cc1ccc(-c2ccccc2C(=O)O)cc1`, the pA2 is reported as 6.3.

For the molecule `CCCCCCc1nc(SCc2ccc(-c3ccccc3C(=O)O)cc2)nn1Cc1ccc(-c2ccccc2C(=O)O)cc1`, the pA2 is 8.

For the molecule `CCCCCc1nc(SCc2ccc(-c3ccccc3C(=O)O)cc2)n(Cc2ccc(-c3ccccc3C(=O)O)cc2)n1`, the pA2 came to 7.2.

In another assay the test system is Rattus norvegicus. Nature of the assay: Tested for the decrease in blood pressure at a dose of ~10 mg/kg by intravenous administration for ~24h. It counts as functional.
`CCCCc1nc(Cl)c(CO)n1Cc1ccc(-c2ccccc2-c2nnn[nH]2)cc1` [LOSARTAN] had a Blood pressure of 37 mmHg.

In a further assay the test system is Rattus norvegicus. Nature of the assay: Tested for the decrease in blood pressure at a dose of ~5 mg/kg by intravenous administration for ~24h. It counts as functional.
`CCCCCc1nc(SCc2ccc(-c3ccccc3C(=O)O)cc2)nn1Cc1ccc(-c2ccccc2C(=O)O)cc1`: the Blood pressure is recorded as 24 mmHg.
